Consider 15 compounds from patent publication US20180228780A1, “3-(1H-PYRROLO[2,3-C]PYRIDIN-2-YL)-1H-INDAZOLES AND THERAPEUTIC USES THEREOF” (Samumed, LLC, priority 2015, published 2018).

Assay type in all cases: cell-based
The subject of experiment [1] is Wnt activity (Sp5-Luc reporter, SW480 colon carcinoma cells). Briefly: Screening assay for Wnt activity: Sp5-Luc reporter gene assay in SW480 cells. The note with it: Homo sapiens; for EC50: SW480 Sp5-Luc reporter, overnight incubation; for inhibition at 10 µM: SW480, read-out: percent inhibition at 10 μM. An excerpt:
The screening assay for Wnt activity is described as follows. Reporter cell lines can be generated by stably transducing cancer cell lines (e.g., colon cancer) or primary cells (e.g., IEC-6 intestinal cells) with a lentiviral construct that includes a Wnt-responsive promoter driving expression of the firefly luciferase gene.
SW480 colon carcinoma cells were transduced with a lentiviral vector expressing luciferase with a human Sp5 promoter consisting of a sequence of eight TCF/LEF binding sites. SW480 cells stably expressing the Sp5-Luc reporter gene and a hygromycin resistance gene were selected by treatment with 150 μg/mL of hygromycin for 7 days. These stably transduced SW480 cells were expanded in cell culture and used for all further screening activities. […] For Sp5-Luc reporter gene assays, the cells were plated at 4,000 cells/well in 384-well plates with medium containing 1% fetal bovine serum and incubated overnight at 37° C. and 5% CO2. Following incubation, 20 μl of BrightGlo luminescence reagent (Promega) was added to each well of the 384-well assay plates. The plates were placed on an orbital shaker for 2 min and then luminescence was quantified using the Envision (Perkin Elmer) plate reader. Readings were normalized to DMSO only treated cells, and normalized activities were utilized for EC50 calculations using the dose-response log (inhibitor) vs. response-variable slope (four parameters) nonlinear regression feature available in GraphPad Prism 5.0 (or Dotmatics).
Background: In a reporter assay the amount or activity of a reporter protein is the signal.

For a further experiment, the system named is SW480 colon cancer cells. Briefly: Cell viability assay (CellTiter-Blue) in SW480 colon cancer cells. Conditions: Homo sapiens; for EC50: 96 h, SW480 cell viability, four days incubation; for inhibition at 10 µM: SW480, read-out: percent inhibition at 10 μM. As for the experimental part:
Representative compounds were screened using the following assay procedure to assess the effect on cell viability as described below.
Approximately 2×10^3 SW480 colon cancer cells were seeded into each well and allowed to incubate in the presence or absence of compound for four days at 37° C./5% CO2. Eight replicates of DMSO-treated cells served as controls and cells treated with compound were performed in duplicate.
After incubation, 20 μL of CellTiter-Blue (Promega) was added to each well allowed to incubate for approximately 3 hours. This reagent was a buffered solution which contains resazurin, metabolically active cells were able to reduce rezarurin (blue) into resorufin (pink) which was highly fluorescent. This measured fluorescence was used as a readout for cell viability.

Experiment [2] relates to Primary human fibroblasts derived from IPF patients (LL29 cells). Briefly: Inhibition of the fibrotic process: αSMA staining in TGF-β1-treated LL29 fibroblasts. Conditions: Fibroblast; for EC50: 96 h, LL29 cells, TGF-β1 20 ng/mL, 4 days, % αSMA-positive cells. An excerpt: Representative compounds were screened using primary human fibroblasts (derived from IFF patients) treated with TGF-β1 to determine their ability to inhibit the fibrotic process.
K. L., et.al., “RhoA signaling modulates cyclin D1 expression in human lung fibroblasts; implications for idiopathic pulmonary fibrosis”, Respiratory Research (2006), 7(1), 88] were obtained from American Type Culture Collection (ATCC) and expanded in F12 medium supplemented with 15% Fetal Bovine Serum and Penicillin/Streptomycin.
LL29 cells are plated at 1,500 cells/well in 80 μL/well F12 medium supplemented with 1% Fetal Bovine Serum. […] Wells treated with TGF-β1 and containing DMSO were used as controls. […] Following incubation for 4 days, SYTOX green nucleic acid stain (Life Technologies [Thermo Fisher Scientific]) was added to the wells at a final concentration of 1 μM and incubated at room temperature for 30 min.

The test system of another experiment is IL-6 (THP-1 cells). Briefly: IL-6 inhibition in THP-1 monocytes (HTRF). Conditions: Homo sapiens; for EC50: IL-6 inhibition, THP-1 cells, HTRF, 10-point dose-response starting from 10 μM; for inhibition at 10 µM: THP-1, read-out: percentage in parentheses printed under EC50 >10. Here is the method: Compound Screening: THP-1 cells were cultured in basal media with 1% FBS for 24 hours before the start of the assay. […] THP-1 cells were plated at 5000 cells/well in the 384-well plates and incubated at 37° C. for 2 h. 500 ng/mL of […] was added after 2 hours and cells were incubated for another 22 hours at 37° C. Plates were spun in a centrifuge for 1 minute at 10,000 rpm and a mixture of anti-IL6 XL665, and anti-IL6 Cryptate diluted in reconstitution buffer (Cisbio Inc.) was added to each well. Following incubation for 3 hrs at room temperature, Homogeneous Time-Resolved Fluorescence (HTRF) was measured using the Envision (Perkin Elmer) at 665 nm and […]. The ratio of fluorescence at 665 nm to 620 nm was used as a readout for IL6 quantification. All samples were processed in duplicate. Readings were normalized to DMSO treated cells and normalized activities were utilized for EC50 calculations using the dose-response log (inhibitor) vs. response-variable slope (four parameters) nonlinear regression feature available in GraphPad Prism 5.0 (or Dotmatics).
A general note: In TR-FRET formats the signal depends on donor and acceptor labels being close together.

As usually defined, the EC50 is the midpoint of the concentration-response curve. With `Fc1ccccc1-c1cncc2[nH]c(-c3n[nH]c4ccc(-c5cncc(CN6CCCCC6)c5)cc34)cc12` [Compound 71, 3-(4-(2-Fluorophenyl)-1H-pyrrolo[2,3-c]pyridin-2-yl)-5-(5-(piperidin-1-ylmethyl)pyridin-3-yl)-1H-indazole], the EC50 was 4.25 µM in experiment [1], 3.42 µM in the experiment on SW480 colon cancer cells, 2.31 µM in experiment [2] and 3.3 µM in the experiment with IL-6 (THP-1 cells).

In the case of `CC(C)(C)CC(=O)Nc1cncc(-c2ccc3[nH]nc(-c4cc5c(-c6ccccc6F)cncc5[nH]4)c3c2)c1` [Compound 72, N-(5-(3-(4-(2-Fluorophenyl)-1H-pyrrolo[2,3-c]pyridin-2-yl)-1H-indazol-5-yl)pyridin-3-yl)-3,3-dimethylbutanamide], the EC50 is 0.73 µM in experiment [1], 0.693 µM in the experiment on SW480 colon cancer cells, 0.593 µM in experiment [2] and 1.1 µM in the experiment on IL-6 (THP-1 cells).

For `CCCCC(=O)Nc1cncc(-c2ccc3[nH]nc(-c4cc5c(-c6ccccc6F)cncc5[nH]4)c3c2)c1` [Compound 75], the EC50 was 1.76 µM in experiment [1], 1.18 µM in the experiment with SW480 colon cancer cells, 1.16 µM in experiment [2] and above 10 µM in the experiment with IL-6 (THP-1 cells). In the experiment on IL-6 (THP-1 cells), the inhibition at 10 µM turned out to be 39.1%.

For the compound `O=C(Nc1cncc(-c2ccc3[nH]nc(-c4cc5c(-c6ccccc6F)cncc5[nH]4)c3c2)c1)C1CCCC1` [Compound 78, N-(5-(3-(4-(2-Fluorophenyl)-1H-pyrrolo[2,3-c]pyridin-2-yl)-1H-indazol-5-yl)pyridin-3-yl)cyclopentanecarboxamide], the EC50 in experiment [1] turned out to be 1.25 µM; in the experiment with SW480 colon cancer cells it was 1.23 µM; in experiment [2], 1.41 µM; in the experiment with IL-6 (THP-1 cells), 6.42 µM.

For `Fc1ccccc1-c1cncc2[nH]c(-c3n[nH]c4ccc(-c5cncc(CN6CCC(F)(F)C6)c5)cc34)cc12` [Compound 82, 5-(5-((3,3-Difluoropyrrolidin-1-yl)methyl)pyridin-3-yl)-3-(4-(2-fluorophenyl)-1H-pyrrolo[2,3-c]pyridin-2-yl)-1H-indazole], the EC50 in experiment [1] worked out at 0.63 µM; in the experiment on SW480 colon cancer cells it was 0.923 µM; in experiment [2] it was 0.648 µM; with IL-6 (THP-1 cells) it was 0.796 µM.

In the case of `Fc1ccccc1-c1cncc2[nH]c(-c3n[nH]c4ccc(-c5ccccn5)cc34)cc12` [Compound 84, 3-(4-(2-Fluorophenyl)-1H-pyrrolo[2,3-c]pyridin-2-yl)-5-(pyridin-2-yl)-1H-indazole], in experiment [1], the inhibition at 10 µM came to 45.9%. Moreover, the EC50 in experiment [1] is above 10 µM; in the experiment on SW480 colon cancer cells, 2.16 µM; in experiment [2], 1.91 µM; in the experiment with IL-6 (THP-1 cells) it was 6.48 µM.

As to `O=C(Cc1ccccc1)Nc1cncc(-c2ccc3[nH]nc(-c4cc5c(-c6ccncc6)cncc5[nH]4)c3c2)c1` [Compound 122], the values for the inhibition at 10 µM (in experiment [1]; in the experiment on SW480 colon cancer cells; in the experiment with IL-6 (THP-1 cells)) were 21%, 8.6% and 47.8%, respectively. Further, the EC50 in experiment [1] was above 10 µM; in the experiment with SW480 colon cancer cells, above 10 µM; in experiment [2] it was 1.47 µM; in the experiment on IL-6 (THP-1 cells), above 10 µM.

`c1cc(-c2ccc3[nH]nc(-c4cc5c(-c6ccncc6)cncc5[nH]4)c3c2)ccn1` [Compound 130, 5-(Pyridin-4-yl)-3-(4-(pyridin-4-yl)-1H-pyrrolo[2,3-c]pyridin-2-yl)-1H-indazole]: the inhibition at 10 µM is 24.7% in experiment [1], 16.6% in the experiment with SW480 colon cancer cells and 20.5% in the experiment with IL-6 (THP-1 cells). Besides, the EC50 in experiment [1] was above 10 µM; in the experiment with SW480 colon cancer cells it was above 10 µM; in experiment [2], 1.23 µM; with IL-6 (THP-1 cells) it was above 10 µM.

As for `O=C(Nc1cncc(-c2ccc3[nH]nc(-c4cc5c(-c6ccncc6)cncc5[nH]4)c3c2)c1)C1CCCCC1` [Compound 135, N-(5-(3-(4-(Pyridin-4-yl)-1H-pyrrolo[2,3-c]pyridin-2-yl)-1H-indazol-5-yl)pyridin-3-yl)cyclohexanecarboxamide], the inhibition at 10 µM in experiment [1] worked out at 20.8%; with SW480 colon cancer cells, 6.1%. In addition, the EC50 was above 10 µM in experiment [1], above 10 µM with SW480 colon cancer cells, 9.98 µM in experiment [2] and 1.63 µM with IL-6 (THP-1 cells).

On to `c1ccc(-c2ccc3[nH]nc(-c4cc5c(-c6ccncc6)cncc5[nH]4)c3c2)nc1` [Compound 140, 5-(Pyridin-2-yl)-3-(4-(pyridin-4-yl)-1H-pyrrolo[2,3-c]pyridin-2-yl)-1H-indazole], for which the concentration for a half-maximal effect (EC50) in experiment [1] was found to be 1.29 µM; in the experiment on SW480 colon cancer cells, 1.06 µM; in experiment [2], 0.75 µM; with IL-6 (THP-1 cells), 0.177 µM.

Regarding `Nc1cncc(-c2ccc3[nH]nc(-c4cc5c(N6CCCCC6)cncc5[nH]4)c3c2)c1` [Compound 171, 5-(3-(4-(Piperidin-1-yl)-1H-pyrrolo[2,3-c]pyridin-2-yl)-1H-indazol-5-yl) pyridin-3-amine], the EC50 in experiment [1] was 3.65 µM; in the experiment on SW480 colon cancer cells, above 10 µM; in experiment [2], above 10 µM; in the experiment on IL-6 (THP-1 cells), 1.54 µM. Besides, the inhibition at 10 µM with SW480 colon cancer cells was 43%; in experiment [2] (read-out: percent inhibition at 10 μM), 9.8%.

For `c1cc(-c2ccc3[nH]nc(-c4cc5c(-c6ccsc6)cncc5[nH]4)c3c2)ccn1` [Compound 298, 5-(Pyridin-4-yl)-3-(4-(thiophen-3-yl)-1H-pyrrolo[2,3-c]pyridin-2-yl)-1H-indazole], the EC50 worked out at 1.33 µM in experiment [1], 1.35 µM in the experiment on SW480 colon cancer cells, 0.716 µM in experiment [2] and 1.09 µM with IL-6 (THP-1 cells).

As for `c1cc(-c2cncc3[nH]c(-c4n[nH]c5ccc(-c6cncc(CN7CCCCC7)c6)cc45)cc23)co1` [Compound 323, 3-(4-(Furan-3-yl)-1H-pyrrolo[2,3-c]pyridin-2-yl)-5-(5-(piperidin-1-ylmethyl)pyridin-3-yl)-1H-indazole], the EC50 was 0.418 µM in experiment [1], 0.57 µM in the experiment on SW480 colon cancer cells, 1.39 µM in experiment [2] and 0.219 µM in the experiment with IL-6 (THP-1 cells).

Consider `CS(=O)(=O)NCc1cc(F)cc(-c2cncc3[nH]c(-c4n[nH]c5ccc(-c6cncc(NC(=O)Cc7ccccc7)c6)cc45)cc23)c1` [Compound 486, N-(5-(3-(4-(3-Fluoro-5-(methylsulfonamidomethyl)phenyl)-1H-pyrrolo[2,3-c]pyridin-2-yl)-1H-indazol-5-yl)pyridin-3-yl)-2-phenylacetamide], for which the EC50 in experiment [1] is 3.48 µM; with SW480 colon cancer cells, above 10 µM; in experiment [2], 4.77 µM; with IL-6 (THP-1 cells) it was 0.574 µM. The inhibition at 10 µM with SW480 colon cancer cells was 45.4%.

Take `CC(C)Nc1cncc(-c2ccc3[nH]nc(-c4cc5c(-c6cc(F)cc(CNS(C)(=O)=O)c6)cncc5[nH]4)c3c2)c1` [Compound 488, N-(3-Fluoro-5-(2-(5-(5-(isopropylamino)pyridin-3-yl)-1H-indazol-3-yl)-1H-pyrrolo[2,3-c]pyridin-4-yl)benzyl)methanesulfonamide]: the EC50 was found to be 0.759 µM in experiment [1], 1.65 µM in the experiment with SW480 colon cancer cells, 2.22 µM in experiment [2] and 0.13 µM with IL-6 (THP-1 cells).
